Experiment [1] deals with peritoneal glucose transport. The experiment can be described thus: Blood glucose in healthy CD-1 mice after intraperitoneal glucose-containing PD fluid. The class given is in vivo. The note with it: inhibitor given 15 min before intraperitoneal PD fluid, results not shown. The procedure:
(§1) Dapagliflozin (0.1 mg/kg) was given to the mice by oral gavage. Control mice were not given any of the SGLT blockers. Tail blood glucose was tested by glucose test meter immediately before (time 0) and during 2 hours after injection. Glucose levels in the urine were tested by standard urine sticks (Multistix® 10 SG, Siemens Healthcare Diagnostics, Tarrytown, N.Y.).

Experiment [2] deals with peritoneal glucose transport. The experiment can be described thus: Uremic mice: phlorizin-containing peritoneal dialysis fluid (PPDF) intraperitoneally. The format is in vivo. The note with it: uremic CD-1 mice; 2 ml Dianeal 1.5% dextrose with 0.6 μM phlorizin (PPDF) i.p.; compared with separate applications of phlorizin and PDF; P<0.01 vs phlorizin-free PDF. As to the method:
(§2) Renal failure in mice and rats was induced by bilateral ureteral ligation, based on the procedure described, for example, in Kim et al. (2015) (Am J Physiol Renal Physio., 308(2):F131-139) and references cited therein. Briefly, mice were anesthetized with an intraperitoneal injection of a cocktail containing ketamine (200 mg/kg body weight) and xylazine (16 mg/kg body weight). After exposure of both the left and right kidneys through flank incision, right and left ureters were ligated completely near the kidney pelvis using a 5-0 silk tie.
Blood glucose levels were measured by glucometer at indicated time points, and area under the curve (AUC) was calculated for all mice and used to compare the two groups (FIG. 5C; P<0.01).

Experiment [3] has as its system peritoneal glucose transport. The experiment can be described thus: Renal failure mice: SC phlorizin followed by sodium-free PDF. The format is in vivo. The note with it: renal failure CD-1 mice; phlorizin 20 mg/kg SC; sodium free PDF 2 ml, 0.375% glucose. The procedure:
as §2
Dependency of glucose transport on SGLT inhibition during peritoneal dialysis with PDF not containing sodium was assessed.

The subject of experiment [4] is peritoneal glucose transport. The experiment can be described thus: Renal failure mice: SC phlorizin followed by intraperitoneal PDF. To be noted: renal failure CD-1 mice, phlorizin 20 mg/kg SC. The format is in vivo. As to the method:
as §2
A standard commercial PD fluid (Dianeal® 1.5% dextrose), diluted 1:4 in saline (comprising 0.375% glucose) was used. Blood glucose levels were measured by glucometer at indicated time points. Area under the curve (AUC) was calculated for all mice and used to compare the two groups. Concentrations of glucose in the peritoneum fluid measured 30 min after administration of PDF are depicted in FIG. 3C.

For experiment [5], the system named is glucose absorption from peritoneal fluid. Description: Uremic rat peritoneal dialysis model: PDF with or without phlorizin. The note with it: uremic SD rats, 120 min dwell. The format is in vivo, Sprague Dawley (SD) rats. The procedure: as §2
Animal experiments were approved by local Animal Care Committee. Male Sprague Dawley (SD) rats 200-250 gr, we purchased from Envigo RMS (Jerusalem, Israel), allowed to acclimatize for 1 week before the beginning of the experiment. Animals were anesthetized by intramuscular administration of a mixture of ketamine (200 mg/kg body wt) and xylazine (16 mg/kg body wt). Renal failure was induced by bilateral ureteral ligation as described in Materials and Methods. […] After anesthesia temporary catheters were introduced into the peritoneal cavity.
To PDF of both group 100 μl of fluorescein isothiocyanate-dextran was added, average molecular weight 2,000,000 (FITC Dextran −2000, 100 μg/ml, Sigma-Aldrich®, Israel). Dialysate and tail blood samples were obtained during 120 min dwell, every 15 min. Blood glucose level was measured by standard glucometer, dialysate glucose was measured in the chemistry laboratory of the Soroka Medical Center. Dilution of FITC-dextran was detected by florescence of dialysis fluid samples measured with a 96-well fluorimeter (SpectraMax® Paradigm® plate reader, Molecular Devices) at an emission wavelength of 535 nm and an excitation wavelength of 485 nm. Concentrations of unknown samples were calculated from a standard curve by extrapolation in a linear regression model.

The subject of experiment [6] is kidney glucose reabsorption. Description: Glycosuria by urine stick in healthy CD-1 mice after an SGLT inhibitor. The class given is in vivo. The note with it: phlorizin 20 mg/kg single SC injection. The procedure: as §1

Regarding `O=C(CCc1ccc(O)cc1)c1c(O)cc(O)cc1O[C@@H]1O[C@H](CO)[C@@H](O)[C@H](O)[C@H]1O` [phlorizin, phloretin-2′-β-D-glucopyranoside], the “Blood glucose levels vs control group” value in experiment [1] was “significantly lower”; in experiment [3], “no differences”; in experiment [5] (20 ml PDF (1.5% Dianeal diluted 1:4) with phlorizin 100 μg/ml, P<0.01), “Significantly lower”. Besides, the “Reduction of blood glucose levels (AUC)” value in experiment [2] is on record as “significantly more effective”. Moreover, the “Blood glucose levels and AUC vs saline control” value in experiment [4] (2 ml Dianeal 1.5% dextrose diluted 1:4 (0.375% glucose) i.p., P<0.05) is listed as “mitigated hyperglycemia”. The “Glucose levels in peritoneum fluid vs control” value in experiment [4] (30 minutes from instillation of PDF) was “significantly elevated”. Also, the “FITC-dextran concentration in PDF (dilution) vs control” value in experiment [5] (PDF with phlorizin 100 μg/ml, P<0.05) is “significant diluted”. Further, the “PDF (dialysate) glucose level vs control group” value in experiment [5] (PDF with phlorizin 100 μg/ml, p<0.001) is recorded as “significant declined”. For the same compound, in experiment [6], the Duration of glycosuria result is recorded as “more than 2 hours”. Also, in experiment [6] (dapagliflozin 0.1 mg/kg oral gavage), the “Glucose levels in urine (glycosuria score, urine stick)” value is “significant glycosuria”.

These data come from patent US20210220379A1, “PERITONEAL SODIUM-GLUCOSE TRANSPORTER (SGLT) INHIBITORS FOR IMPROVEMENT OF PERITONEAL DIALYSIS” (MOR RESEARCH APPLICATIONS LTD., priority 2017, published 2021).
